The values that follow come from ChEMBL document CHEMBL4265904, “Hybrids of arenobufagin and benzoisoselenazol reducing the cardiotoxicity of arenobufagin” (Bioorg Med Chem Lett, 2018).

The source made the active and inactive calls. No cut-off for these calls is given here.

Series [1] can be described thus: Antiproliferative activity against human AC16 cells by MTT assay. It counts as cell-based. (Formazan colour is commonly taken as a measure of viable cells.)
Series [2] is described as follows: Selectivity index, ratio of IC50 for human AC16 cells to IC50 for human HepG2 cells. It counts as toxicity. The following applies: AC16 cells and HepG2 cells, read-out: Ratio IC50.
For series [3], the system named is HepG2. The experiment in a line: Antiproliferative activity against human HepG2 cells by MTT assay. It counts as functional, cell-based.
Series [4] can be described thus: Antiproliferative activity against human HepG2/ADM cells by MTT assay. Format: functional, cell-based.
Series [5] can be described thus: Toxicity in ip dosed Kunming mouse assessed as mortality. Format: organism-based. Conditions: in vivo.
The test system of series [6] is HepG2. The experiment in a line: Antiproliferative activity against human HepG2 cells after 48 hrs by MTT assay. It counts as functional, cell-based. Conditions: HepG2, 48 h.
The nature of series [7]: Cytotoxic activity against human AC16 cells assessed as cell swelling at 1 uM after 24 hrs by phase contrast microscopic method. It counts as cell-based.
Series [8] is described as follows: Cytotoxic activity against human AC16 cells assessed as cell detachment from substratum at 1 uM after 24 hrs by phase contrast microscopic method. It counts as cell-based.
Series [9] relates to HepG2. The experiment in a line: Inhibition of ROS generation in human HepG2 cells at 1 uM after 2 hrs by DCFH-DA staining based method. It counts as functional, cell-based.
The species named for a further series is Homo sapiens. Briefly: Cytoprotective activity against H2O2-induced oxidative damage in human AC16 cells at 1 uM preincubated for 30 mins followed by H2O2 addition and measured after 6 hrs. It counts as functional, cell-based.

What is called IC50 is the midpoint of a concentration-inhibition curve. For `CC[C@H](C)[C@@H](C(=O)O[C@H]1CC[C@@]2(C)[C@H](CC[C@@H]3[C@@H]2[C@H](O)C(=O)[C@]2(C)[C@@H](c4ccc(=O)oc4)CC[C@]32O)C1)n1[se]c2cc(OC)ccc2c1=O`, the IC50 in series [1] amounted to 15 µM; in the series on HepG2 [3], 14500 nM; in series [4], 36.7 µM. Besides, the selectivity ratio in series [2] amounted to 1.03.

In general, LD50 refers to the dose at which mortality reaches 50%. As to `C[C@]12CC[C@H](O)C[C@H]1CC[C@@H]1[C@@H]2[C@H](O)C(=O)[C@]2(C)[C@@H](c3ccc(=O)oc3)CC[C@]12O`, the LD50 in [5] worked out at 20 mg/kg. The IC50 is 0.1 to 10 nM in the series on HepG2 [6], 0.005 µM in [1], 20 nM with HepG2 [3] and 0.056 µM in series [4]. The Activity result in series [7] and in [8] was “Toxic” each time. In addition, the selectivity ratio in series [2] amounted to 0.25.

Consider `COc1ccc2c(=O)n([C@@H](Cc3ccccc3)C(=O)O[C@H]3CC[C@@]4(C)[C@H](CC[C@@H]5[C@@H]4[C@H](O)C(=O)[C@]4(C)[C@@H](c6ccc(=O)oc6)CC[C@]54O)C3)[se]c2c1`, for which the inhibition entry in the series on HepG2 [9] is “Active”. For the same compound, the IC50 worked out at 2.2 µM in [1], 305 nM with HepG2 [3] and 5.86 µM in series [4]. In addition, the Activity result in series [7] and in series [8] was “Non-Toxic” throughout. The result in the series listed under Homo sapiens was Active. The selectivity ratio in [2] was determined as 7.21.

`C[C@]12CC[C@H](OC(=O)[C@H](Cc3ccccc3)n3[se]c4cc(C(F)(F)F)ccc4c3=O)C[C@H]1CC[C@@H]1[C@@H]2[C@H](O)C(=O)[C@]2(C)[C@@H](c3ccc(=O)oc3)CC[C@]12O`: the inhibition result in the series on HepG2 [9] is “Active”. Moreover, the IC50 in series [1] amounted to 4.3 µM; in the series with HepG2 [3], 265 nM; in series [4], 9.74 µM. For the same compound, the Activity result in series [7] and in [8] was “Non-Toxic” in each case. Besides, the outcome in the series filed under Homo sapiens was Active. Moreover, the selectivity ratio in [2] is 16.2.

`O=c1c2ccccc2[se]n1-c1ccccc1`: in the series listed under Homo sapiens, the result was Active.

`Cc1ccc2c(=O)n([C@@H](Cc3ccccc3)C(=O)O[C@H]3CC[C@@]4(C)[C@H](CC[C@@H]5[C@@H]4[C@H](O)C(=O)[C@]4(C)[C@@H](c6ccc(=O)oc6)CC[C@]54O)C3)[se]c2c1`: the IC50 in series [1] came out at 3.57 µM; in the series with HepG2 [3] it was 489 nM; in series [4], 7.94 µM. Besides, the Activity result in series [7] and in series [8] was “Non-Toxic” in each case. Besides, in the series listed under Homo sapiens, the outcome was Active. The selectivity ratio in series [2] was 7.3.

For `Cc1ccc2c(=O)n(CC(=O)O[C@H]3CC[C@@]4(C)[C@H](CC[C@@H]5[C@@H]4[C@H](O)C(=O)[C@]4(C)[C@@H](c6ccc(=O)oc6)CC[C@]54O)C3)[se]c2c1`, the figures for the IC50 (in [1]; in the series on HepG2 [3]; in [4]) were 2.13 µM, 607 nM and 2.45 µM, respectively. Moreover, the selectivity ratio in series [2] amounted to 3.51.

Consider `C[C@]12CC[C@H](OC(=O)[C@H](Cc3ccccc3)n3[se]c4ccccc4c3=O)C[C@H]1CC[C@@H]1[C@@H]2[C@H](O)C(=O)[C@]2(C)[C@@H](c3ccc(=O)oc3)CC[C@]12O`, for which, in the series on HepG2 [9], the inhibition result is “Active”. For the same compound, the IC50 in [1] turned out to be 3.21 µM; in the series on HepG2 [3] it was 339 nM; in series [4], 5.59 µM. The Activity entry in [7] and in series [8] was “Non-Toxic” throughout. Moreover, the result in the series listed under Homo sapiens was Active. The selectivity ratio in series [2] turned out to be 9.47.
